Measured values as given in the OligoGym collection.
Where “and” joins values, the source holds several entries; their conditions need not be identical. Equal entries are not always repeated. After the bases stand the sugars from the 5' end (letter, count) and the backbone: PS all phosphorothioate, else s phosphorothioate and o phosphodiester by linkage. Methylation of C is not given here. l = locked nucleic acid (LNA); d = 2'-deoxy (DNA)

Key:
ANGPTL2 = conditions: ASO
MYH7 = conditions: ASO, CC-2580, 5 µM

| Sequence | target mRNA inhibition (ANGPTL2; 5 µM) | target mRNA inhibition (ANGPTL2; 25 µM) | target mRNA inhibition (MYH7) |
| --- | --- | --- | --- |
| CAGGTCCTTGTACTTGC (sugars l2 d13 l2, PS) | 49.2% | 62% | – |
| GTCATAGAAACTACCCC (sugars l1 d13 l3, PS) | 29.1% | 68.1% | – |
| ATAGTGGGCAGAGGGGG (sugars l1 d14 l2, PS) | 21.6% | 13.4% | – |
| TCAGCTTGGCGATGATCT (sugars ldlddldddddddlldll, PS) | – | – | 36% and 19% |
| CATTTTGAGATTCCCCCA (sugars l1 d15 l2, PS) | 22.1% | 21.1% | – |
| CAGCTTGGCGATGATCT (sugars l2 d9 l1 d2 l3, PS) | – | – | 59% and 54% |
| CTTGGCAATGATCTCATCC (sugars lddlddddddlldldldll, PS) | – | – | -14% and -32% |
| ATCAATAGGCAGACAGGC (sugars l2 d14 l2, PS) | 50.1% | 65.4% | – |
| TCAGCTTGGCGATGATCT (sugars lddldldddddddlldll, PS) | – | – | 3% and -15% |
| CTTGGCAATGATCTCATCC (sugars lldlddddddddddldlll, PS) | – | – | 69% and 47% |
| CTAGTGTGCTCTGGAGC (sugars l1 d14 l2, PS) | 36.6% | 65.7% | – |
| TCAGCTTGGCGATGATCT (sugars l2 d6 l1 d6 l3, PS) | – | – | 47% and 23% |
| TAATAGGCACACACCCAGAC (sugars l1 d17 l2, PS) | 27.2% | 43.3% | – |
| CTTGGCAATGATCTCATCC (sugars lddldddddddlddlddll, PS) | – | – | 60% and 37% |
| TTGATGATGCGGTTGTA (sugars l3 d12 l2, PS) | 76.5% | 83.1% | – |
| CAGCTTGGCGATGATCT (sugars l2 d8 l1 d2 l4, PS) | – | – | 37% and 35% |
| CAGCTTGGCGATGATCT (sugars lddlddddddldldlll, PS) | – | – | 20% and 19% |
| CTGGGTTATATTCTCTT (sugars l2 d12 l3, PS) | 39.4% | 43.5% | – |
| TCCGGTAATGGCCCC (sugars l1 d12 l2, PS) | 34% | 51.8% | – |
| GCCAACACTAACTCGGC (sugars l1 d14 l2, PS) | 30.6% | 31.4% | – |

| Sequence | target mRNA inhibition (ANGPTL2; 5 µM) | target mRNA inhibition (ANGPTL2; 25 µM) | target mRNA inhibition (MYH7) |
| --- | --- | --- | --- |
| CTTGGCAATGATCTCATCC (sugars lddlddddddlddldldll, PS) | – | – | 14% and 6% |
| ATTGTGGGTTGGAGGGC (sugars l1 d14 l2, PS) | 30.3% | 18.7% | – |
| CAGCTTGGCGATGATCT (sugars l2 d11 l1 d1 l2, PS) | – | – | 66% and 46% |
| TCAGCTTGGCGATGATCT (sugars llldlddldddddldlll, PS) | – | – | 0% and 2% |
| AGTTGATAGTTTATCTCCT (sugars l2 d15 l2, PS) | 59.7% | 67.4% | – |
| CAGCTTGGCGATGATCT (sugars llddddddddlldldll, PS) | – | – | 14% and 18% |
| ACCCTCCATCCTTCACC (sugars l4 d11 l2, PS) | 36.5% | 52.7% | – |
| CTTGGCAATGATCTCATCC (sugars lllddddddlddlddldll, PS) | – | – | 44% and 26% |
| TCAGCTTGGCGATGATCT (sugars l2 d9 l1 d3 l3, PS) | – | – | 40% and 33% |
| TGTTTGGAAATGTTATCT (sugars l3 d11 l4, PS) | 80.9% | 87.1% | – |
| TCAGCTTGGCGATGATCT (sugars llllddlddddddldlll, PS) | – | – | 8% and -6% |
| CTTGGCAATGATCTCATCC (sugars lddlddddddldlddldll, PS) | – | – | -3% and -25% |
| CCCACAATGAGACTGGT (sugars l2 d13 l2, PS) | 30.2% | 30.4% | – |
| CTTGGCAATGATCTCATCC (sugars lddddddllddlddlddll, PS) | – | – | 26% and 5% |
| CAGCTTGGCGATGATCT (sugars l2 d8 l1 d3 l3, PS) | – | – | 48% and 29% |
| GAAGAAAAGAGCACATGG (sugars l3 d11 l4, PS) | 33.2% | 9.98% | – |
| GTTGATGATGCGGTTGTAG (sugars l1 d16 l2, PS) | 22.9% | 34% | – |
| CTGGTTGATGATGCGGTT (sugars l1 d15 l2, PS) | 56% | 66% | – |
| GCTCCGGTAATGGCCC (sugars l1 d12 l3, PS) | 25.9% | 29.2% | – |
| AAGAGAGAAGGCAGTGAGAG (sugars l2 d16 l2, PS) | 24.8% | 10.9% | – |
